Source: US6642216B2, “Isoprenoid pathway inhibitors for stimulating bone growth” (ZymoGenetics Corporation, priority 1996, dated 2003)

Key:
[1] = system: serum response element (SRE)-luciferase reporter gene / CRE-luciferase reporter gene; experiment: negative control OBSRE (SRE-luciferase) and/or glucagon (CRE-luciferase) assays; format: cell-based, murine
From the text: In the negative control OBSRE assay, a murine osteoblast cell line, such as CCC-4 expressing a serum response element (SRE)-luciferase reporter gene is used (see WO96/07733). In the negative control glucagon assay, a glucagon receptor-positive BHK cell expressing a CRE-luciferase reporter gene is used (see U.S. Pat. No. 5,698,672).

murine calvariae = settings: reports by R. G. G. Russell and colleagues; cited from earlier work
BMP-2 promoter = experiment: ABA assay: BMP-2 promoter-luciferase reporter in 2T3-BMP-2-LUC osteoblast cells; format: cell-based, mouse
Method: These transformed cells are then evaluated for the production of the reporter gene product; compounds that activate the BMP promoter will drive production of the reporter protein, which can be readily assayed.
The cells were cultured using α-MEM, 10% FCS with 1% penicillin/streptomycin and 1% glutamine (“plating medium”), and were split 1:5 once per week. For the assay, the cells were resuspended in a plating medium containing 4% FCS, plated in microtiter plates at a concentration of 5×10^3 cells (in 50 μl)/well, and incubated for 24 hours at 37° C. in 5% CO2. To initiate the assay, 50 μl of the test compound or the control in DMSO was added at 2× concentration to each well, so that the final volume was 100 μl. The final serum concentration was 2% FCS, and the final DMSO concentration was 1%.
The treated cells were incubated for 24 hours at 37° C. and 5% CO2. The medium was then removed, and the cells were rinsed three times with PBS. After removal of excess PBS, 25 μl of 1× cell culture lysing reagent (Promega #E153A) was added to each well and incubated for at least ten minutes. Optionally, the plates/samples could be frozen at this point. To each well was added 50 μl of luciferase substrate (Promega #E152A; 10 ml Promega luciferase assay buffer per 7 mg Promega luciferase assay substrate). Luminescence was measured on an automated 96-well luminometer, and was expressed as either picograms of luciferase activity per well or as picograms of luciferase activity per microgram of protein.
Alternatively, the reactivity of a compound to be tested can be compared directly to a negative control containing no compound.

[2] = system: ICR Swiss white mice calvaria; experiment: In vivo murine calvarial bone growth assay; set-up: species or system mouse; settings: 12.5 μg/kg/day
Method: Male ICR Swiss white mice, aged 4-6 weeks and weighing 13-26 gm, are employed, using 4-5 mice per group. The calvarial bone growth assay is performed as described in PCT application WO 95/24211, incorporated by reference. Briefly, the test compound or appropriate control vehicle is injected into the subcutaneous tissue over the right calvaria of normal mice. Typically, the control vehicle is the vehicle in which the compound was solubilized, and is PBS containing 5% DMSO or is PBS containing Tween (2 μl/10 ml). The animals are sacrificed on day 14 and bone growth measured by histomorphometry. Bone samples for quantitation are cleaned from adjacent tissues and fixed in 10% buffered formalin for 24-48 hours, decalcified in 14% EDTA for 1-3 weeks, processed through graded alcohols; and embedded in paraffin wax. Three to five μm sections of the calvaria are prepared, and representative sections are selected for histomorphometric assessment of the effects on bone formation and bone resorption. Sections are measured by using a camera lucida attachment to trace directly the microscopic image onto a digitizing plate. Bone changes are measured on sections cut 200 μm apart, over 4 adjacent 1×1 mm fields on both the injected and noninjected sides of the calvaria. New bone is identified by its characteristic woven structure, and osteoclasts and osteoblasts are identified by their distinctive morphology. Histomorphometry software (OsteoMeasure, Osteometrix, Inc., Atlanta) is used to process digitizer input to determine cell counts and measure areas or perimeters.
The results are reported as a measurement of total bone area (and % increase in area over vehicle control), as shown below.

neonatal mouse calvaria = experiment: Neonatal mouse calvaria assay (in vitro bone formation); format: cell-based; set-up: Osteoblast Number, % increase over vehicle control / New Bone Area, % increase over vehicle control: concentration or dose not given beside the values; settings: Experiment 1
Method: Briefly, four days after birth, the front and parietal bones of ICR Swiss white mouse pups are removed by microdissection and split along the sagittal suture.
Three μm sections of the calvaria are prepared. Representative sections are selected for histomorphometric assessment of bone formation or bone resorption. Bone changes are measured on sections cut 200 μm apart. Osteoblasts and osteoclasts are identified by their distinctive morphology.
Selected compounds and appropriate controls were assayed in vitro (ex vivo) for bone formation activity (described above in “Neonatal Mouse Calvaria Assay (in vitro)”). Histomorphometrical assessments of ex vivo calvaria were carried out using an OsteoMetrics bone morphometry measurement program, according to the manufacturer's instructions. Measurements were determined using either a 10- or 20-fold objective with a standard point counting eyepiece graticule.
New bone formation was determined (using a 10× objective) by measuring the new bone area formed in one field in 3 representative sections of each bone (4 bones per group). Each measurement was carried out ½ field distance from the end of the suture. Both total bone and old bone area were measured. Data were expressed as new bone area in mm^2.
Osteoblast numbers were determined by point counting. The number of osteoblast cells lining the bone surface on both sides of the bone were counted in one field using a 20× objective. Data were expressed as osteoblast numbers/mm of bone surface.
The results were calculated as new bone area in mm^2×10^−3, as above.

[3] = Experiment 2, 0.097656 μM, 0.038085 μg/ml
[4] = Experiment 2, 0.195312 μM, 0.076171 μg/ml
[5] = Experiment 2, 0.390625 μM, 0.152343 μg/ml
[6] = Experiment 2, 0.78125 μM, 0.304687 μg/ml
[7] = Experiment 2, 1.5625 μM, 0.609375 μg/ml
[8] = Experiment 2, 3.125 μM, 1.21875 μg/ml
[9] = Experiment 2, 6.25 μM, 2.4375 μg/ml
[10] = Experiment 2, 12.5 μM, 4.875 μg/ml
[11] = Experiment 2, 25 μM, 9.75 μg/ml
[12] = Experiment 2, 50 μM, 19.5 μg/ml

Compound: CC[C@H](C)C(=O)O[C@H]1CCC=C2C=C[C@H](C)[C@H](CC[C@@H]3C[C@@H](O)CC(=O)O3)[C@H]21 [Mevastatin, mevastatin]
- dose-dependent stimulatory effect in control assays [1]: not in control assays
- inhibition of bone resorption in murine calvariae in vitro (murine calvariae): inhibits bone resorption
- dose-dependent stimulatory effect in the ABA assay (BMP-2 promoter): dose-dependent stimulatory effect
- % 59-0008 Response (BMP-2 promoter; Experiment 1, 0.195312 μg/ml): 25.840%
- Fold increase over negative control (BMP-2 promoter; Experiment 1, 0.195312 μg/ml): 2.144 fold
- % 59-0008 Response (BMP-2 promoter; Experiment 1, 0.390625 μg/ml): 15.650%
- Fold increase over negative control (BMP-2 promoter; Experiment 1, 0.390625 μg/ml): 1.693 fold
- % 59-0008 Response (BMP-2 promoter; Experiment 1, 0.78125 μg/ml): 34.520%
- Fold increase over negative control (BMP-2 promoter; Experiment 1, 0.78125 μg/ml): 2.528 fold
- % 59-0008 Response (BMP-2 promoter; Experiment 1, 1.5625 μg/ml): 47.630%
- Fold increase over negative control (BMP-2 promoter; Experiment 1, 1.5625 μg/ml): 3.103 fold
- % 59-0008 Response (BMP-2 promoter; Experiment 1, 3.125 μg/ml): 99.670%
- Fold increase over negative control (BMP-2 promoter; Experiment 1, 3.125 μg/ml): 5.413 fold
- % 59-0008 Response (BMP-2 promoter; Experiment 1, 6.25 μg/ml): 140.260%
- Fold increase over negative control (BMP-2 promoter; Experiment 1, 6.25 μg/ml): 7.210 fold
- % 59-0008 Response (BMP-2 promoter; Experiment 1, 12.5 μg/ml): 164.730%
- Fold increase over negative control (BMP-2 promoter; Experiment 1, 12.5 μg/ml): 8.293 fold
- % 59-0008 Response (BMP-2 promoter; Experiment 1, 25 μg/ml): 152.690%
- Fold increase over negative control (BMP-2 promoter; Experiment 1, 25 μg/ml): 7.760 fold
- % 59-0008 Response (BMP-2 promoter; Experiment 1, 50 μg/ml): 153.110%
- Fold increase over negative control (BMP-2 promoter; Experiment 1, 50 μg/ml): 7.779 fold
- % 59-0008 Response (BMP-2 promoter; Experiment 1, 100 μg/ml): 12.460%
- Fold increase over negative control (BMP-2 promoter; Experiment 1, 100 μg/ml): 1.552 fold
- % 59-0008 Response (BMP-2 promoter; Experiment 1, 200 μg/ml): −1.600%
- Fold increase over negative control (BMP-2 promoter; Experiment 1, 200 μg/ml): 0.929 fold
- % 59-0008 Response (BMP-2 promoter; [3]): 2.880%
- Fold increase over negative control (BMP-2 promoter; [3]): 1.1 fold
- % 59-0008 Response (BMP-2 promoter; [4]): −0.090%
- Fold increase over negative control (BMP-2 promoter; [4]): 0.9 fold
- % 59-0008 Response (BMP-2 promoter; [5]): 0.960%
- Fold increase over negative control (BMP-2 promoter; [5]): 1.0 fold
- % 59-0008 Response (BMP-2 promoter; [6]): 2.370%
- Fold increase over negative control (BMP-2 promoter; [6]): 1.1 fold
- % 59-0008 Response (BMP-2 promoter; [7]): 9.780%
- Fold increase over negative control (BMP-2 promoter; [7]): 1.6 fold
- % 59-0008 Response (BMP-2 promoter; [8]): 10.970%
- Fold increase over negative control (BMP-2 promoter; [8]): 1.7 fold
- % 59-0008 Response (BMP-2 promoter; [9]): 36.210%
- Fold increase over negative control (BMP-2 promoter; [9]): 3.4 fold
- % 59-0008 Response (BMP-2 promoter; [10]): 66.010%
- Fold increase over negative control (BMP-2 promoter; [10]): 5.3 fold
- % 59-0008 Response (BMP-2 promoter; [11]): 71.630%
- Fold increase over negative control (BMP-2 promoter; [11]): 5.7 fold
- % 59-0008 Response (BMP-2 promoter; [12]): 97.420%
- Fold increase over negative control (BMP-2 promoter; [12]): 7.4 fold
- % 59-0008 Response (BMP-2 promoter; Experiment 2, 100 μM, 39 μg/ml): 88.860%
- Fold increase over negative control (BMP-2 promoter; Experiment 2, 100 μM, 39 μg/ml): 6.9 fold

Compound: bFGF: control factor, "gold standard" agent for bone growth
- % increase in total bone area over vehicle control [2]: 45%
- Total Bone Area [2]: 242 μm^2
- New Bone Area (neonatal mouse calvaria; 3 days): 5.7 mm^2 × 10^−3
- New Bone Area, % increase over vehicle control (neonatal mouse calvaria; 3 days): 19%
- Osteoblast Number (neonatal mouse calvaria; 3 days): 179.25 Obs/field
- Osteoblast Number, % increase over vehicle control (neonatal mouse calvaria; 3 days): 84%
- New Bone Area (neonatal mouse calvaria; 7 days): 18.1 mm^2 × 10^−3
- New Bone Area, % increase over vehicle control (neonatal mouse calvaria; 7 days): 132%
- Osteoblast Number (neonatal mouse calvaria; 7 days): 168.7 Obs/field
- Osteoblast Number, % increase over vehicle control (neonatal mouse calvaria; 7 days): 82%

Compound: CCC(C)(C)C(=O)O[C@H]1C[C@@H](C)C=C2C=C[C@H](C)[C@H](CC[C@@H](O)C[C@@H](O)CC(=O)O)[C@H]21 [Hydrolyzed simvastatin, hydrolyzed simvastatin]
- dose-dependent stimulatory effect in control assays [1]: not in control assays
- dose-dependent stimulatory effect in the ABA assay (BMP-2 promoter): dose-dependent stimulatory effect
- % 59-0008 Response (BMP-2 promoter; Experiment 1, 0.195312 μg/ml): −0.680%
- Fold increase over negative control (BMP-2 promoter; Experiment 1, 0.195312 μg/ml): 0.9 fold
- % 59-0008 Response (BMP-2 promoter; Experiment 1, 0.390625 μg/ml): 1.520%
- Fold increase over negative control (BMP-2 promoter; Experiment 1, 0.390625 μg/ml): 1.1 fold
- % 59-0008 Response (BMP-2 promoter; Experiment 1, 0.78125 μg/ml): 10.430%
- Fold increase over negative control (BMP-2 promoter; Experiment 1, 0.78125 μg/ml): 1.6 fold
- % 59-0008 Response (BMP-2 promoter; Experiment 1, 1.5625 μg/ml): 36.190%
- Fold increase over negative control (BMP-2 promoter; Experiment 1, 1.5625 μg/ml): 3.4 fold
- % 59-0008 Response (BMP-2 promoter; Experiment 1, 3.125 μg/ml): 75.860%
- Fold increase over negative control (BMP-2 promoter; Experiment 1, 3.125 μg/ml): 6.0 fold
- % 59-0008 Response (BMP-2 promoter; Experiment 1, 6.25 μg/ml): 150.260%
- Fold increase over negative control (BMP-2 promoter; Experiment 1, 6.25 μg/ml): 10.9 fold
- % 59-0008 Response (BMP-2 promoter; Experiment 1, 12.5 μg/ml): 156.230%
- Fold increase over negative control (BMP-2 promoter; Experiment 1, 12.5 μg/ml): 11.3 fold
- % 59-0008 Response (BMP-2 promoter; Experiment 1, 25 μg/ml): 200.230%
- Fold increase over negative control (BMP-2 promoter; Experiment 1, 25 μg/ml): 14.3 fold
- % 59-0008 Response (BMP-2 promoter; Experiment 1, 50 μg/ml): 44.520%
- Fold increase over negative control (BMP-2 promoter; Experiment 1, 50 μg/ml): 3.9 fold
- % 59-0008 Response (BMP-2 promoter; Experiment 1, 100 μg/ml): −15.230%
- Fold increase over negative control (BMP-2 promoter; Experiment 1, 100 μg/ml): −0.0 fold
- % 59-0008 Response (BMP-2 promoter; Experiment 1, 200 μg/ml): −15.140%
- Fold increase over negative control (BMP-2 promoter; Experiment 1, 200 μg/ml): −0.0 fold
